Measurements from ChEMBL document CHEMBL1156829 (Proc Natl Acad Sci U S A, 2008).
pEC50: −log10 of the molar value.

Legend:
Plasmodium falciparum [1] = test: NOVARTIS: Inhibition of Plasmodium falciparum 3D7 (drug-susceptible) proliferation in erythrocyte-based infection assay; assay type: functional, organism-based; details: Plasmodium falciparum, 3D7
Plasmodium falciparum [2] = test: NOVARTIS: Inhibition of Plasmodium falciparum W2 (drug-resistant) proliferation in erythrocyte-based infection assay; assay type: functional, organism-based; details: Plasmodium falciparum, W2; read-out: EC50
[3] = NOVARTIS: Cytotoxicity against human hepatocellular carcinoma cell line (Huh7); assay type: toxicity, cell-based, Huh-7; details: Huh7 cells (hepatocellular carcinoma cell line)

SMILES | pEC50 (Plasmodium falciparum [1]) | pEC50 (Plasmodium falciparum [2]) | CC50 [3] [µM]
O=C1/C(=N\c2cccc(O)c2)C(N2CCCCC2)=C(O)c2ccccc21 | 6.67 | 6.64 | > 100
CN(C)c1ccc2c(c1)Sc1cc(N(C)C)ccc1N2C(=O)c1ccccc1 | 6.66 | 6.63 | > 100
CC(=O)OCC(=O)[C@@]1(O)CCC2C3CCC4=CC(=O)CC[C@]4(C)C3[C@@H](O)C[C@@]21C (stereo not given in full) | < 5.90 | > 7.64 | > 10
Cc1nn(CC(O)Cn2c3ccc(Br)cc3c3cc(Br)ccc32)c(C)c1Br (stereo not given) | 6.11 | 6.75 | 75.2
CS(=O)(=O)N1CCCCC1C(=O)NCc1ccc(OC2CCN(CC(c3ccccc3)c3ccccc3)CC2)cc1 (stereo not given) | 5.99 | 7.64 | > 10
c1ccc2cc3c(N4CCN(CCN5CCN(c6ccnc7cc8ccccc8cc67)CC5)CC4)ccnc3cc2c1 | 6.75 | 6.64 | > 100
CSc1nc2nc(C)c(Cc3cccc(C(F)(F)F)c3)c(C)n2n1 | 6.57 | 6.65 | > 100
CN(C)c1cc[n+](CC(=O)c2ccc(Br)cc2)cc1 | 6.68 | 6.74 | 75.6
CSc1ccc(C=CC(=O)NC(=O)c2ccccc2O)cc1 | 6.61 | 6.65 | > 100
CN(C)CCCNc1ncnc2c1[nH]c1ccc(Cl)cc12 | 7.58 | 7.36 | 20.7
Clc1ccc(-c2c[n+](-c3ccccc3)c3n2CCS3)cc1 | 6.51 | 6.63 | > 100
Cc1ccc(NC(=O)N(CCCN(C)C)Cc2cc3cc4c(cc3[nH]c2=O)OCO4)cc1 | 5.89 | 6.63 | > 100
Cc1cc(NCCc2ccccc2)nc2cc(O)ccc12 | 6.42 | 7.16 | 29.5
c1ccc(CCc2nc3cccnc3n2C2CCN(C3CCN(Cc4ccccc4)CC3)CC2)cc1 | 6.81 | 6.76 | 81.4
CCc1c(C)c(C#N)c2nc3ccccc3n2c1Nc1ccc(C)c(Cl)c1 | 5.96 | 6.63 | > 100
CC(=O)c1ccc(N2CCN(Cc3cc(-c4ccnc5cc(Cl)ccc45)ccc3O)CC2)cc1 | 5.55 | 6.64 | > 100
CCc1cc2c3c(c1)C1(C(=O)N3C(C)(C)CC2C)C(C#N)=C(N)Oc2cc(C)oc(=O)c21 (stereo not given) | 5.83 | 6.64 | > 100
C=CCSc1nc2sc3c(c2c(=O)n1-c1ccccc1)CCN(C)C3 | 6.20 | 6.64 | > 100
O=C(c1cc2cc(Br)ccc2o1)N1CCc2c([nH]c3ccccc23)C1c1ccc(Cl)cc1 (stereo not given) | 6.05 | 6.65 | > 100
CCOC(=O)C1=C(C)NC2=C(C(=O)C(C(=O)OCC)C(c3ccc(OC)cc3)C2)C1c1ccc(OC)c(OC)c1 (stereo not given) | 6.56 | 6.75 | > 76.6
CC1CN(C(=O)c2sc3cccc(F)c3c2Cl)CC(C)O1 (stereo not given) | 6.52 | 6.64 | > 100
CN1CCN(c2ccc(Nc3ccnc4cc(Cl)ccc34)cc2Cl)CC1 | 7.45 | 7.26 | > 23.7
Cc1ccc(S(=O)(=O)NCCCCNc2ccnc3cc(Cl)ccc23)cc1 | 6.24 | > 7.69 | > 9.02
O=C(Nc1ccc(-c2ccc(Cl)cc2)cc1)c1cccs1 | 6.55 | 6.65 | > 100

SMILES | pEC50 (Plasmodium falciparum [1]) | pEC50 (Plasmodium falciparum [2]) | CC50 [3] [µM]
OCC1CCCCN1Cc1cc(-c2ccccc2)ccc1O (stereo not given) | 5.99 | > 7.63 | > 10
COc1ccc(OC)c(-c2ccc(O)c(CNCCc3ccc(F)cc3)c2)c1 | 5.98 | > 7.63 | > 10
C[n+]1ccccc1C=Cc1ccc(Br)cc1 | 6.45 | 6.66 | 95.2
COc1cccc(-c2ccc(O)c(CN3CCC(Cc4ccccc4)CC3)c2)n1 | 6.51 | 7.06 | 38.5
O=C(Cc1ccsc1)N1CCOc2c(cc(-c3csc4ccccc34)cc2OCCc2ccccn2)C1 | 6.42 | 6.65 | > 100
c1cncc(CCNc2nccn3c(-c4ccc5ccccc5c4)cnc23)c1 | 6.94 | 7.09 | 34.4
CCOC(=O)c1nnn(-c2nonc2N)c1-c1ccc(Br)cc1 | 6.54 | 6.64 | > 100
CCOc1ccccc1-n1c(N)c(C(=O)Nc2ccc(F)cc2)sc1=S | 6.01 | 6.64 | > 100
COc1ccc2nc3cc(Cl)ccc3c(NCCCN(CCCN)CCCCN)c2c1 | 7.10 | 7.65 | > 10
CC1CNC(c2ccc(NC(=O)c3ccc(C(=O)Nc4ccc(C5=NC(C)CN5)cc4)c(N)c3)cc2)=N1 (stereo not given) | 7.33 | 7.65 | > 10
Brc1ccc(C=Cc2cc[n+](Cc3ccccc3)cc2)cc1 | 6.86 | 6.99 | 47.3
Oc1ccc(-c2ccnc3cc(Cl)ccc23)cc1CNC1CN2CCC1CC2 (stereo not given) | 6.01 | > 7.62 | > 10
CCCCC(=O)NC(c1ccccc1)c1ccc2cccnc2c1O (stereo not given) | 6.41 | 6.62 | > 100
CCc1c(C)c(C#N)c2nc3ccccc3n2c1NCc1ccccc1 | 6.10 | 6.62 | > 100
O=[N+]([O-])c1cc(C(F)(F)F)ccc1N1CCCN(C(=S)Nc2cccc(C(F)(F)F)c2)CC1 | 6.83 | 6.89 | 55
CCCCCCn1c(=O)c(C(=O)NCC[N+](CC)(CC)CC)c(O)c2ccccc21 | 6.30 | 6.63 | > 100
CCOC(=O)C1=C(C)NC2=C(C(=O)C(C(=O)OCC)C(c3ccccc3OC)C2)C1c1sccc1C (stereo not given) | 6.01 | 6.63 | > 100
Oc1ccc(-c2ccccc2)cc1CNC1CCCCC1 | 6.01 | > 7.63 | > 10
O=[N+]([O-])c1cccc2c1nnn2C12CC3CC(CC(O)(C3)C1)C2 | 6.27 | 6.61 | > 100
COc1cc(-c2nc(-c3ccc(C)c(C)c3)c(-c3ccc(C)c(C)c3)[nH]2)cc(OC)c1O | 7.03 | 6.88 | 61.2
Nc1noc2cccc(OC3CCNCC3)c12 | 5.99 | > 7.61 | > 10
CCN1C=CC(=Cc2ccc3cc(C)ccc3[n+]2C)C=C1 | 6.77 | 6.85 | > 58
C=CC1CN2CCC1CC2C(OC(C)=O)c1ccnc2ccc(OC)cc12 (stereo not given) | 6.62 | 6.67 | > 100
N#Cc1ccc(CNC(=S)Nc2cc(Cl)ccc2Cl)cc1 | 6.38 | 6.62 | > 100

SMILES | pEC50 (Plasmodium falciparum [1]) | pEC50 (Plasmodium falciparum [2]) | CC50 [3] [µM]
CCc1nc2nc(C)cc(Nc3ccc4c(c3)OCCO4)n2n1 | 6.44 | 6.66 | > 100
COc1cccc(C(NC(=O)c2ccccc2)c2ccc3cccnc3c2O)c1 (stereo not given) | 6.87 | 6.67 | > 100
CCOc1ccc(-c2c[n+](-c3ccccc3)c3n2CCS3)cc1 | 6.38 | 6.64 | > 100
Cc1onc(-c2ccccc2)c1C(=O)N1CCC(CNc2c(-c3ccoc3)nc3ccccn23)CC1 | 5.75 | 6.65 | 96.5
OCc1nc2ccccc2n1CCOc1ccccc1 | < 5.90 | 7.63 | > 10
Cc1ccn2c(NC(C)(C)CC(C)(C)C)c(-c3ccccc3OC(=O)Cc3ccccc3)nc2c1 | 6.03 | 7.66 | > 10
COc1cc(C2CC(=O)NC(C)=C2C(=O)OC(C)C)c(OC)cc1Br (stereo not given) | 5.99 | 6.62 | > 100
COc1ccc(-n2c(COc3cccc4ccccc34)nnc2SC)cc1 | 6.28 | 6.63 | > 100
Cc1nc2c(c(C)nn2C)c(C)c1CCC(=O)N1CCCC1 | 6.44 | > 7.80 | > 6.85
COc1cc2c(cc1OC)C1=NC(=O)C(C(C)C)N1C(SCc1csc(Cl)n1)=N2 (stereo not given) | < 5.85 | 7.50 | 14.3
O=C(NC1CC1)c1ccc(OC2CCN(CC3CCCCC3)CC2)c(Cl)c1 | 6.92 | 7.30 | 22.6
CCCc1nc2ccc(NC(=O)c3ccccc3F)cc2c(=O)n1Cc1ccc(-c2ccccc2)cc1 | 5.97 | 6.66 | > 100
CCSc1ccc2ccccc2[n+]1CC | 6.75 | 6.64 | > 100
CCOC(=O)C1=C(C)NC2=C(C(=O)C(C(=O)OCC)C(c3ccccc3OC)C2)C1c1cccs1 (stereo not given) | 5.74 | 6.62 | > 100
Oc1ccc(-c2cccnc2)cc1CNCC1CC2C=CC1C21CC1 (stereo not given) | 6.08 | > 7.63 | > 10
COC(=O)CC(NS(=O)(=O)c1ccc(OC)cc1)c1ccc2c(c1)OCO2 (stereo not given) | 5.84 | > 7.63 | > 10.3
Oc1ccc(-c2ccc3c(c2)OCO3)cc1CNC12CC3CC(CC(C3)C1)C2 | 6.08 | 6.65 | > 100
COc1ccc2c(c1OC)C(=O)N1c3ccccc3N=C(c3ccc(I)cc3)CC21 (stereo not given) | 6.38 | 6.65 | > 100
Cc1nc(N(C)c2ccc(C(C)C)cc2)c2c(C)c(C(=O)Nc3cc(C)on3)sc2n1 | 6.61 | 6.63 | > 100
Cc1ccn2c(NC(C)(C)CC(C)(C)C)c(-c3ccccc3OC(=O)c3ccc4c(c3)OCO4)nc2c1 | 6.08 | 7.62 | > 10
Cc1ccc(N(C)C(=O)CCNS(=O)(=O)c2cc(Br)cnc2N)cc1 | 5.72 | 6.65 | > 100
c1ccc2c(c1)[nH]c1ccc3ccncc3c12 | 7.07 | 7.62 | > 10
